System: IL-1a-induced PGE2 in neonatal human dermal fibroblasts
Experiment: Inhibition of IL-1a-induced PGE2 production in fibroblasts (PGE2 enzyme immunoassay)
Type: cell-based
Experimental: Neonatal human dermal fibroblasts (passage 5-9) were seeded at a density of 7500 cells per well in 96-well tissue culture treated plates (Corning-Costar, Corning, N.Y.). The medium used was Dulbecco's Modified Eagle's Medium (DMEM), high-glucose (Gibco/Life Technologies, Gaithersburg, Md.) supplemented with 2 mM L-glutamine, 10% fetal bovine serum, and antibiotic and anti mycotic solutions (all also Life Technologies). After 48 hours, each well was rinsed twice with 200 μl serum-free DMEM and the cells dosed with 200 μl in DMEM+L-glutamine containing IL-1α at 1 ng/ml +/− active. […]
Enzyme immunoassay was performed using a commercial PGE2 kit (Amersham, Buckinghamshire, England). […] The assay is based on the competition between unlabelled PGE2 (standard or sample) and a fixed quantity of peroxidase labelled PGE2 for a limited amount of the well-bound PGE2-specific antibody. […] The Dynatech MR7000 microplate spectrophotometer (Dynatech, Chantilly, Va.) was used to quantitate color in the wells by reading absorbance at 450 nm. […]
The antiinflammatory potential of the test compounds is assessed by the ability of the compound to inhibit IL-1a-induced PGE2 and is expressed as the ratio of PGE2 produced by the cells treated with the test compound +IL-1a to PGE2 produced by the cells treated with IL-1a alone. […] Statistical significance was determined using the student's t-test.

## Chicoric acid
Table 1b, concentration 0.001%
  Ratio of PGE2 with echinacea + IL-1a/IL-1a: 0.02
At 0.001%
  Effectiveness in the PGE2 test (in words): effective
